This passage reports MIC, MIC50 and MIC90 results from ChEMBL document CHEMBL5226287, “Small organic molecules targeting the energy metabolism of Mycobacterium tuberculosis” (Eur J Med Chem, 2021).

Molecules are shown by their SMILES. In brackets after ≈: the same amount, converted by molar mass. Starred links: 1 amine or outer side, 2 acyl side, 3 side chain; linkers in the order of their positions; H or OH if unused. Non-standard residues stand in square brackets, D forms with d. Residues, ends and D or L forms follow the SMILES beside them. ξ: configuration not given here. *: point of attachment. X1 = CCC(=O)C[C@@H](O)C[C@@H](C)C[C@H](N[*:1])C(=O)[*:2]; Alaψ(CH2NMeCH2CH2OH) = C[C@@H](CN(C)CCO)N*; Decanoyl(2R-Me) = CCCCCCCC[C@@H](C)C(=O)*; Ile(3ξ) = CCC(C)[C@H](N)C(=O)O; ξβ3hP = O=C(O)CC1CCCN1; Aib = CC(C)(N)C(=O)O

Type in all cases: functional
The subject of assay [1] is Mycobacterium tuberculosis variant bovis. Description: Antimycobacterial activity against Mycobacterium bovis BCG ATCC 35737 at 50 uM by Luminescence assay.
For assay [2] the test system is unchanged. Description: Antimycobacterial activity against Mycobacterium bovis BCG assessed as reduction in bacterial growth incubated for 48 hrs by HT-SPOTi assay.
Assay [3] shares this test system. Description: Antibacterial activity against Mycobacterium bovis BCG assessed as inhibition of bacterial growth by microdilution based analysis.
Assay [4] has the same test system. Description: Antibacterial activity against Mycobacterium bovis BCG assessed as complete inhibition of bacterial growth by Alamar Blue/Resazurin. For orientation: The colour change of resazurin is a common sign of viable cells or microbes.

As for `Cc1ccc(C(=O)N2CCOCC2)cc1Nc1nccn1-c1cc(NC2CC2)ncn1`, the lowest concentration to inhibit growth in assay [1] (MIC) was 0.036 µM (≈ 0.0151 µg/mL).

In the case of `CCCCCCCC[C@@H](C)C(=O)N1CCCC1CC(=O)N[C@@H](C[C@H](C)C[C@H](O)CC(=O)CC)C(=O)NC(C)(C)C(=O)NC(C)(C)C(=O)N[C@H](C(=O)N[C@H](C(=O)NC(C)(C)C(=O)NC(C)(C)C(=O)N[C@@H](C)CN(C)CCO)C(C)C)C(C)CC` (stereo partly drawn) ({Decanoyl(2R-Me)}-[ξβ3hP][X1][Aib][Aib][Ile(3ξ)]V[Aib][Aib]-{Alaψ(CH2NMeCH2CH2OH)}), in assay [2], the MIC50 – broadly, the lowest concentration that inhibits either 50% of growth or 50% of the strains tested, depending on the study – worked out at 33 µM (≈ 38.9 µg/mL).

Turning to `Cc1ccc2nc(C)c(C(=O)NCc3ccc(C(F)(F)F)cc3)n2c1`, the MIC (commonly the smallest concentration in the dilution series that meets the test's criterion for growth inhibition) in assay [3] came to 0.5 µM (≈ 0.174 µg/mL).

With `CCc1nc2ccc(Cl)cn2c1C(=O)NCc1ccc(N2CCC(c3ccc(OC(F)(F)F)cc3)CC2)cc1` [TELACEBEC], the MIC90 (in general, an inhibitory concentration at the 90% level, which refers to growth in some studies and to a panel of isolates in others) in assay [4] was 0.125 µg/mL (≈ 0.224 µM).
